According to patent US9221816B2, “2-oxo-2,3-dihydro-indoles for the treatment of CNS disorders” (Hoffmann-La Roche Inc., priority 2012, dated 2015):
“Also recorded” adds a separate entry of the source.

Columns and labels:
[1] = test system: behaviors of compound-treated mice; assay: SmartCube behavioral signature, similarity to atypical antipsychotics; format: in vivo; settings: for discrimination rate vs Clozapine / discrimination rate vs Olanzapine / discrimination rate vs Risperidone: SmartCube, i.p. 15 minutes before test, 0.70 or lower = similar; for SmartCube signature: i.p., mice, classification by similarity to drug classes
Text: In addition to the reversal of L-687,414 induced hyperlocomotion experiment as described above, some compounds of the present invention have been tested in SmartCube®, an automated system in which the behaviors of compound-treated mice in response to multiple challenges are captured by digital video and analyzed with computer algorithms (Roberds et al., Frontiers in Neuroscience, 2011, Vol. 5, Art. 103, 1-4). In this way, the neuro-pharmacological effects of a test compound can be predicted by similarity to major classes of compounds, such as antipsychotics, anxiolytics and antidepressants.
SmartCube® was used to compare the behavioral signature of a test compound to a database of behavioral signatures obtained from a large set of clinically approved reference drugs, grouped per indications. In this way, the neuro-pharmacological effects of a test compound can be predicted by similarity to major classes of compounds, such as antipsychotics, anxiolytics and antidepressants. This approach is ideally suited to screen collections of existing drugs or drug candidates with previously unknown neuropharmacology, which could expedite the development of new and unexpected treatments for psychiatric disorders.
Some compounds of the present invention were injected i.p. at different doses 15 minutes before the test. At least 8 mice were used in each treatment group. Digital videos of the subjects were processed with computer vision algorithms to extract over 2000 dependent measures including frequency and duration of many different behavioral states. The results of the classifications are presented as bar charts for each dose (mg/kg), the Y-axis indicates the relative probability that the test compound will show efficacy in the specific CNS indication.
For comparison, the behavioral signature of the atypical antipsychotic risperidone is shown in FIG. 3 (for behavioral signatures of further atypical antipsychotic, e.g. clozapine, olanzapine, see also Roberds et al., Frontiers in Neuroscience, 2011, Vol. 5, Art. 103, 1-4). Compounds of the present invention show similar signatures to those of atypical antipsychotics. An independent analysis was performed on the unclassified data to determine the similarity of the example compounds to active doses of known atypical antipsychotics. For this analysis, we use discrimination rate as the measure of separability between the two drugs, i.e. one drug's “distinguishability” from another. A rate equal to 50% (or 0.5) corresponds to zero distinguishability. […] In most cases, the example compounds show a similarity to risperidone, clozapine and olanzapine with a discrimination rate of ≦0.70.

[2] = test system: L-687,414-induced hyperlocomotion; assay: L-687,414-induced hyperlocomotion (Digiscan locomotor activity); format: in vivo, mouse; settings: mice; for ID50 po: p.o. 15 min before s.c. 50 mg/kg L-687,414, dose producing 50% inhibition of hyperlocomotion; for Inhibition, ip: dose ip 30, at the same time as s.c. 50 mg/kg L-687,414, % inhibition of horizontal activity
Experimental: The authors described that hyperlocomotion induced by L-687,414 was inhibited by a series of known antipsychotic drugs. […] These findings predict antipsychotic activity for the present compounds, making them useful for the treatment of schizophrenia and other disorders as described above.
The described compounds of formula I and I-1 reduce L-687,414-induced hyperlocomotion. This was assessed by using a computerized Digiscan 16 Animal Activity Monitoring System (Omnitech Electronics, Columbus, Ohio) to quantify locomotor activity. Animals were kept under a 12 h light/dark cycle and experiments were performed during the light period. Each activity monitoring chamber consisted of a Plexiglas box (41×41×28 cm; W×L×H) with sawdust bedding on the floor surrounded by invisible horizontal and vertical infrared sensor beams. The test boxes were divided by a Plexiglas cross providing each mouse with 20×20 cm of moving space. Cages were connected to a Digiscan Analyzer linked to a computer that constantly collected the beam status information. Records of photocell beam interruptions for individual animals were taken every 5 min over the duration of the experimental session and the sum of the first 6 periods was used as the final parameter. Compounds were administered either p.o. 15 min before a s.c. injection of 50 mg/kg of L-687,414, or i.p. at the same time as a s.c. injection of 50 mg/kg of L-687,414. Mice were then transferred from their home cage to the recording chambers for a 15-min habituation phase allowing free exploration of the new environment. Horizontal activity was then recorded for a 30-min time period. The % inhibition of L-687,414-induced hyperlocomotion was calculated according to the equation: ((Veh+L-687,414 horizontal activity−drug+L-687,414 horizontal activity)/Veh+L-687,414 horizontal activity)×100
ID50 values, defined as doses of each compound producing 50% inhibition of L-687,414-induced hyperlocomotion, were calculated by linear regression analysis of a dose-response data using an Excel-based computer-fitting program.
As data was not presupposed to be normally distributed, groups treated with test compounds were statistically compared with the control (vehicle-treated) group using one-tailed Mann Whitney U tests. In statistics, the Mann-Whitney U test (also called the Mann-Whitney-Wilcoxon (MWW) or Wilcoxon rank-sum test) is a non-parametric statistical hypothesis test for assessing whether one of two samples of independent observations tends to have larger values than the other. It is one of the most well-known non-parametric significance tests. […] P values given in table 1 are one-tailed since only decreases in locomotion were expected and tested for (Mann, H. B., Whitney, D. R. (1947), “On a Test of Whether one of Two Random Variables is Stochastically Larger than the Other”, Annals of Mathematical Statistics, 18 (1), 50-60).

Q: Which “discrimination rate vs Clozapine” value [1] does the source give for `CN1C(=O)C(C)(C)c2ccc(NC(=O)c3ccncc3F)cc21` [Example 29, 3-Fluoro-N-(1,3,3-trimethyl-2-oxoindolin-6-yl)isonicotinamide] here?
A: 0.63

Q: What about the “discrimination rate vs Olanzapine” value [1] of the same compound?
A: 0.58

Q: What about the “discrimination rate vs Risperidone” value [1] of the same compound?
A: 0.56

Q: And the SmartCube signature [1]?
A: similarity to atypical antipsychotics; also recorded: profile similar to that of atypical antipsychotics

Q: What about the ID50 po [2] of the same compound?
A: 1.08 mg/kg

Q: `CC1(C)C(=O)N(C2CC2)c2cc(NC(=O)c3ccncc3Cl)ccc21` [Example 30, 3-Chloro-N-(1-cyclopropyl-3,3-dimethyl-2-oxoindolin-6-yl)isonicotinamide] was tested. Which “discrimination rate vs Clozapine” value [1] did it give?
A: 0.68

Q: What about the “discrimination rate vs Olanzapine” value [1] of the same compound?
A: 0.67

Q: And the “discrimination rate vs Risperidone” value [1]?
A: 0.72

Q: And the SmartCube signature [1]?
A: similarity to atypical antipsychotics; also recorded: profile similar to that of atypical antipsychotics

Q: What about the ID50 po [2] of the same compound?
A: 0.97 mg/kg

Q: `Cc1cc(C(=O)Nc2ccc3c(c2)N(C2CC2)C(=O)C32CC2)ccn1` [Example 60, N-(1′-Cyclopropyl-2′-oxospiro[cyclopropane-1,3′-indoline]-6′-yl)-2-methylisonicotinamide] was tested. Which “Inhibition, ip” value [2] did it give?
A: 63.2%

Q: For `CC1(C)C(=O)N(C2COC2)c2cc(NC(=O)c3ccncc3Cl)ccc21` [Example 62, 3-Chloro-N-(3,3-dimethyl-1-(oxetan-3-yl)-2-oxoindolin-6-yl)isonicotinamide], which “Inhibition, ip” value [2] is on record?
A: 61.7%

Q: `CC1(C)C(=O)N(C2COC2)c2cc(NC(=O)c3cccnc3)ccc21` [Example 64, N-(3,3-Dimethyl-1-(oxetan-3-yl)-2-oxoindolin-6-yl)nicotinamide] was tested. Which “Inhibition, ip” value [2] did it give?
A: 65.9%

Q: With `CC1(C)C(=O)N(CCCOC2CC2)c2cc(NC(=O)c3ccncc3F)ccc21` [Example 65, N-(1-(3-Cyclopropoxypropyl)-3,3-dimethyl-2-oxoindolin-6-yl)-3-fluoroisonicotinamide] as the compound, how does the “Inhibition, ip” value [2] read?
A: 91.1%

Q: Which “Inhibition, ip” value [2] does the source give for `CC1(C)C(=O)N(CCO)c2cc(NC(=O)c3ccncc3F)ccc21` [Example 68, 3-Fluoro-N-(1-(2-hydroxyethyl)-3,3-dimethyl-2-oxoindolin-6-yl)isonicotinamide] here?
A: 89.1%

Q: With `CC1(C)C(=O)N(CCCO)c2cc(NC(=O)c3ccncc3F)ccc21` [Example 69, 3-Fluoro-N-(1-(3-hydroxypropyl)-3,3-dimethyl-2-oxoindolin-6-yl)isonicotinamide] as the compound, how does the “Inhibition, ip” value [2] read?
A: 82.4%

Q: For `CC1(C)C(=O)Nc2cc(NC(=O)c3ccncc3F)ccc21` [Example 72, N-(3,3-Dimethyl-2-oxoindolin-6-yl)-3-fluoroisonicotinamide], which ID50 po [2] is on record?
A: 2.22 mg/kg

Q: `CC1(C)C(=O)N(CCCO)c2cc(NC(=O)c3ccncc3Cl)ccc21` [Example 73, 3-Chloro-N-(1-(3-hydroxypropyl)-3,3-dimethyl-2-oxoindolin-6-yl)isonicotinamide] was tested. Which “Inhibition, ip” value [2] did it give?
A: 51.2%

Q: For `CC1(C)C(=O)N(CC(F)(F)F)c2cc(NC(=O)c3ccncc3F)ccc21` [Example 74, N-(3,3-Dimethyl-2-oxo-1-(2,2,2-trifluoroethyl)indolin-6-yl)-3-fluoroisonicotinamide], which “Inhibition, ip” value [2] is on record?
A: 76.6%

Q: With `CC1(C)C(=O)N(C2CC2)c2cc(NC(=O)c3ccncc3)ncc21` [Example 79, N-(1-Cyclopropyl-3,3-dimethyl-2-oxo-2,3-dihydro-1H-pyrrolo[3,2-c]pyridin-6-yl)isonicotinamide] as the compound, how does the ID50 po [2] read?
A: 0.94 mg/kg

Q: How did the “Inhibition, ip” value [2] turn out when `Cc1cc(C(=O)Nc2cc3c(cn2)C(C)(C)C(=O)N3C2CC2)ccn1` [Example 81, N-(1-Cyclopropyl-3,3-dimethyl-2-oxo-2,3-dihydro-1H-pyrrolo[3,2-c]pyridin-6-yl)-2-methylisonicotinamide] was run?
A: 53.1%

Q: How did the “Inhibition, ip” value [2] turn out when `CC1(C)C(=O)N(C2CC2)c2cc(NC(=O)c3ccnc(Cl)c3)ncc21` [Example 83, 2-Chloro-N-(1-cyclopropyl-3,3-dimethyl-2-oxo-2,3-dihydro-1H-pyrrolo[3,2-c]pyridin-6-yl)isonicotinamide] was run?
A: 79.6%

Q: Which “Inhibition, ip” value [2] does the source give for `CC1(C)C(=O)N(C2CC2)c2cc(NC(=O)c3ccno3)ncc21` [Example 85, N-(1-Cyclopropyl-3,3-dimethyl-2-oxo-2,3-dihydro-1H-pyrrolo[3,2-c]pyridin-6-yl)isoxazole-5-carboxamide] here?
A: 74.9%

Q: How did the “Inhibition, ip” value [2] turn out when `Cn1nccc1C(=O)Nc1cc2c(cn1)C(C)(C)C(=O)N2C1CC1` [Example 86, N-(1-Cyclopropyl-3,3-dimethyl-2-oxo-2,3-dihydro-1H-pyrrolo[3,2-c]pyridin-6-yl)-1-methyl-1H-pyrazole-5-carboxamide] was run?
A: 69%

Q: Which ID50 po [2] does the source give for `COc1ncc(C(=O)Nc2cc3c(cn2)C(C)(C)C(=O)N3C2CC2)cn1` [Example 88, N-(1-Cyclopropyl-3,3-dimethyl-2-oxo-2,3-dihydro-1H-pyrrolo[3,2-c]pyridin-6-yl)-2-methoxypyrimidine-5-carboxamide] here?
A: 6.11 mg/kg
